Assay results from US12532882B2, “Biocide composition and methods of use” (priority 2017, dated 2026).

Tests used:
[1] = test system: clubroot spores; test: Clubroot resting spore mortality by Evans blue staining (Example 2); conditions: positive control, 2% concentration
[2] = test system: clubroot resting spores; test: Clubroot resting spore mortality by Evans blue staining, separate test with AES-100; conditions: all concentrations above 1.5%
[3] = test system: clubroot resting spores; test: Clubroot resting spore mortality by Evans blue staining (Example 5); conditions: all concentrations above 1.5%
[4] = test system: seeds; test: Seed germination in soils saturated with product; conditions: soils saturated with 2% solution

OCl [sodium hypochlorite]
resting spore mortality [1]: 100% | mortality of clubroot resting spores [2]: 100% | mortality of clubroot resting spores [3]: 100% | seed germination [4]: no seeds germinated
